Results reported in patent US20230406853A1, “COVALENT CDK2-BINDING COMPOUNDS FOR THERAPEUTIC PURPOSES” (Umbra Therapeutics, Inc., priority 2021, published 2023).

Target: CycE1-CDK2 (Homo sapiens, UniProt P24941)
Experiment: Cdk2 Enzymatic TR-FRET Assay
Assay type: biochemical
Details: CDK2/CycE 5 nM, ATP 100 μM, 60 minutes pre-incubation with compound; read-out: CDK2 Kinase
Source text: A TR-FRET system was used to detect CycE1-CDK2 kinase activity. The assay used a Europium-labeled anti-phospho-Ser/Thr antibody and ULight™-labeled peptide substrate (eIF4E-binding protein 1). When CycE1-CDK2 phosphorylates the peptide the phosphorylated Thr is recognized by the Europium-labeled anti-phospho-Ser/Thr antibody. Upon excitation of the Europium donor fluorophore at 337 nm, energy is transferred to the ULight™ acceptor dye on the substrate, resulting in the emission of light at 665 nm. The fluorescent signal is proportional to the level of ULight™ peptide phosphorylation and to the kinase activity.
The stock solution was prepared as follows: • 1× Reaction buffer: 50 mM HEPES pH 7.5, 10 mM MgCl2, 0.5 mM TCEP, 0.01% Tween®20, 1 mM EGTA, 0.001% fatty acid free (faf)-BSA; • 1× Detection buffer: equilibrate the Detection buffer at RT for at least 20 minutes then dilute 10-fold the stock in water; • 4×ENZYME mix: CDK2/CycE enzyme (5 nM final concentration in kinase reaction) in 1× Reaction buffer; • 4×SUBSTRATE mix: 4E-BP substrate (50 nM final concentration in kinase reaction)+ATP (100 μM final concentration in kinase reaction) in 1× Reaction buffer • 2×STOP/DETECTION mix: EDTA (10 mM final concentration in assay)+Anti-Phosphate antibody (0.5 nM final concentration in assay) in 1× Detection buffer • Neutral Control: Assay with no inhibition (MAX activity) • Inhibitor Control: Assay with IC100 (1 mM) reference inhibitor JNJ7706621 (MIN activity)
The assay was assembled directly in a white, small volume, Proxiplate (PerkinElmer) as follows: • Step 1: Charge compounds=5 μL/well • Step 2: Charge kinase=2.5 μL/well→total volume 7.5 μL/well • The plate is sealed and incubated at room temperature for 60 minutes • Step 3: Substrate mix (substrate/ATP)=2.5 μL/well→total enzymatic reaction volume 10 μL/well • The plate is sealed and incubated at room temperature for 60 minutes • Step 4: Stop/Detection mix (EDTA/antibody)=10 μL/well→total volume 20 μL/well • The plate is sealed and incubated at room temperature for at least 2 hours and fluorescence signal is measured at PHERAstar FSX The reading conditions are the followings for PHERAstar FSX:
A 384-microtiter plate (MTP), containing 20 test compounds in eight-points dose response, is prepared. Test compounds dose response curves are prepared in automation in 100% DMSO in a CyBio Felix, starting from a DMSO stock solution of 10 mM. To obtain the eight-points dose-response curve, a serial dilution protocol in 100% DMSO is performed for each compound by using a 96 MTP as a support. 20 μL of the 10 mM stock solutions are transferred in row A of a 96 MTP U-bottom from column 2 to 11 for a total of 10 compounds/plate. Starting from the 10 mM stock, serial dilutions across rows, from A to B and proceeding up to H, are performed for each compound by transferring 6.3 μL of the more concentrated fluid in 13.7 μL of 100% DMSO.
In order to generate duplicate data points each well of the 96 MTP is then replicated into two wells of a 384 MTP plate for each compound and for each concentration to be tested. The 384 MTP compound plate is used as source plate in a “mother to child” process with a CyBi®-Well dispenser in which 1 μL of compound is moved into a destination plate pre-filled with 24 μL of reaction buffer, obtaining 2× concentrated compound solution.
Genedata Screener® 17.0 was used for data analysis. In the implemented workflow, the following calculations were conducted: • Calculate the Response Value (KRV) from the respective original data as follow:
HTRF Assay: Ratio=665 nm_FRET/620 nm_Ab*10000 • Calculate the % Inhibition of the compound (Inhibitory effect). KRV was normalized versus Neutral Controls and Inhibitor Controls (JNJ7706621) to obtain Activity % according to the following formula:
Activity %=−100*(x−<Neutral Control>)/(<Inhibitor Control>−<Neutral Control>) […]

| Structure (SMILES) | IC50 [µM] |
| --- | --- |
| CS(=O)(=O)N1CCC(Nc2ncc3ccc(=O)n(CC(=O)Nc4ccc(S(=O)(=O)n5cnc(C6CCCC6)n5)cc4)c3n2)CC1 [Compound 273] | > 200 |
| CS(=O)(=O)N1CCC(Nc2ncc3ccc(=O)n(CCS(=O)(=O)n4cnc(-c5ccccc5)n4)c3n2)CC1 [Compound 274] | < 10 |
| O=C(Cn1c(=O)ccc2cnc(NC3CCOC3)nc21)Nc1ccc(S(=O)(=O)n2cnc(C3CC3)n2)cc1 (stereo not shown) [Compound 275] | < 10 |
| CS(=O)(=O)N1CCC(Nc2ncc3cc(CCO)c(=O)n(CCCS(=O)(=O)n4cnc(C5CC5)n4)c3n2)CC1 [Compound 276] | < 10 |
| CC(C)N1CCC(Nc2ncc3ccc(=O)n(CCCS(=O)(=O)n4cnc(C5CC5)n4)c3n2)CC1 [Compound 277] | > 200 |
| O=C(Cn1c(=O)ccc2cnc(NCC3CC3)nc21)Nc1ccc(S(=O)(=O)n2cnc(C3CC3)n2)cc1 [Compound 278] | > 200 |
| O=C(Cn1c(=O)ccc2cnc(NC3CCOCC3)nc21)Nc1ccc(S(=O)(=O)n2cnc(C3CC3)n2)cc1 [Compound 279] | < 10 |
| CN1CCC(Nc2ncc3ccc(=O)n(CC(=O)Nc4ccc(S(=O)(=O)n5cnc(C6CC6)n5)cc4)c3n2)CC1 [Compound 280] | > 200 |
| O=C(Cn1c(=O)ccc2cnc(NC3CC(F)(F)C3)nc21)Nc1ccc(S(=O)(=O)n2cnc(C3CC3)n2)cc1 [Compound 281] | < 10 |
| O=C(Cn1c(=O)ccc2cnc(NCC3CCCCC3)nc21)Nc1ccc(S(=O)(=O)n2cnc(C3CC3)n2)cc1 [Compound 282] | > 200 |
| O=C(Cn1c(=O)ccc2cnc(NC3CC3)nc21)Nc1ccc(S(=O)(=O)n2cnc(C3CC3)n2)cc1 [Compound 283] | < 10 |
| CS(=O)(=O)N1CCC(Nc2ncc3cc(CCO)c(=O)n(CCCS(=O)(=O)n4cnc(-c5ccccc5)n4)c3n2)CC1 [Compound 284] | < 10 |
| CS(=O)(=O)N1CCC(Nc2ncc3cc(Cl)c(=O)n(CCCS(=O)(=O)n4cncn4)c3n2)CC1 [Compound 285] | < 10 |
| CS(=O)(=O)N1CCC(Nc2ncc3cc(Cl)c(=O)n(CCCS(=O)(=O)n4cnc(C5CC5)n4)c3n2)CC1 [Compound 286] | < 10 |
| CS(=O)(=O)N1CCC(Nc2ncc3cc(Cl)c(=O)n(CCCS(=O)(=O)n4cnc(-c5ccccc5)n4)c3n2)CC1 [Compound 287] | < 10 |
| COCCc1cc2cnc(NC3CCN(S(C)(=O)=O)CC3)nc2n(CCCS(=O)(=O)n2cnc(C3CC3)n2)c1=O [Compound 288] | < 10 |
| Cc1cc2cnc(NC3CCN(S(C)(=O)=O)CC3)nc2n(CCCS(=O)(=O)n2cnc(C3CC3)n2)c1=O [Compound 289] | < 10 |
| CS(=O)(=O)N1CCC(Nc2ncc3cc(CO)c(=O)n(CCCS(=O)(=O)n4cnc(-c5ccccc5)n4)c3n2)CC1 [Compound 290] | < 10 |
| CS(=O)(=O)N1CCC(Nc2ncc3ccc(=O)n(CCS(=O)(=O)n4cncn4)c3n2)CC1 [Compound 291] | < 10 |
| CC(C)CNc1ncc2ccc(=O)n(CC(=O)Nc3ccc(S(=O)(=O)n4cnc(C5CC5)n4)cc3)c2n1 [Compound 292] | > 200 |
| CC(C(=O)Nc1ccc(S(=O)(=O)n2cnc(-c3ccccc3)n2)cc1)n1c(=O)ccc2cnc(NC3CCN(S(C)(=O)=O)CC3)nc21 (stereo not shown) [Compound 293] | < 10 |
| CC(C(=O)Nc1ccc(S(=O)(=O)n2cncn2)cc1)n1c(=O)ccc2cnc(NC3CCN(S(C)(=O)=O)CC3)nc21 (stereo not shown) [Compound 294] | < 10 |
| O=C(Cn1c(=O)ccc2cnc(NC3CCCCCC3)nc21)Nc1ccc(S(=O)(=O)n2cnc(C3CC3)n2)cc1 [Compound 295] | > 200 |
| CS(=O)(=O)N1CCC(Nc2ncc3cc(CO)c(=O)n(CCCS(=O)(=O)n4cncn4)c3n2)CC1 [Compound 296] | < 10 |
| CS(=O)(=O)N1CCC(Nc2ncc3cc(CCO)c(=O)n(CCCS(=O)(=O)n4cncn4)c3n2)CC1 [Compound 297] | < 10 |
| Cc1cc2cnc(NC3CCN(S(C)(=O)=O)CC3)nc2n(CCCS(=O)(=O)n2cncn2)c1=O [Compound 298] | < 10 |
| Cc1cc2cnc(NC3CCN(S(C)(=O)=O)CC3)nc2n(CCCS(=O)(=O)n2cnc(-c3ccccc3)n2)c1=O [Compound 299] | < 10 |
| CS(=O)(=O)N1CCC(Nc2ncc3cc(CO)c(=O)n(CCCS(=O)(=O)n4cnc(C5CC5)n4)c3n2)CC1 [Compound 300] | < 10 |
